In ChEMBL document CHEMBL1909046, “DrugMatrix in vitro pharmacology data”:

What was measured:
[1] = target: T1, Alpha-1B adrenergic receptor (Rattus norvegicus, UniProt P15823); assay: DRUGMATRIX: Alpha-1B adrenergic receptor radioligand binding (ligand: prazosin); type: cell membranes, Wistar, Liver, Membrane; conditions: Not Active = under 50% inhibition at 10 µM; for Ki: read-out: Ki
T1 sequence (P15823 whole entry): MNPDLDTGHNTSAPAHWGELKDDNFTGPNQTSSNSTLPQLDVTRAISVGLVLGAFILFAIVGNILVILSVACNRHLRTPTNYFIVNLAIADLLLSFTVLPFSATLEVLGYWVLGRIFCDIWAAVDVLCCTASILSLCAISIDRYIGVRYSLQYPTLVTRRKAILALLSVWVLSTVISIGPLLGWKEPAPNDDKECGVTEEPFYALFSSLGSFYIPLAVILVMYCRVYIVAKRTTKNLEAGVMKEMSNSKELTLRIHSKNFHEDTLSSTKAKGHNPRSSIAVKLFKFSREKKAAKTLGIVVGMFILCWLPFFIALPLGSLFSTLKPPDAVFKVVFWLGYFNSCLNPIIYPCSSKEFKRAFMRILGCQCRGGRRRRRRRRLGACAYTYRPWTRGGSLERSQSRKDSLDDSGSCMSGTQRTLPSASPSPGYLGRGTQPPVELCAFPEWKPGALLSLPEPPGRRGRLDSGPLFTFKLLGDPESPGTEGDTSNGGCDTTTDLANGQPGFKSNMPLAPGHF

[2] = target: T2, Vasoactive intestinal polypeptide receptor 1 (Homo sapiens, UniProt P32241); type: cell membranes, Membrane; conditions: ht-29; also: in other assays of this panel Not Active means under 50% inhibition at 10 µM
T2 sequence (P32241 whole entry): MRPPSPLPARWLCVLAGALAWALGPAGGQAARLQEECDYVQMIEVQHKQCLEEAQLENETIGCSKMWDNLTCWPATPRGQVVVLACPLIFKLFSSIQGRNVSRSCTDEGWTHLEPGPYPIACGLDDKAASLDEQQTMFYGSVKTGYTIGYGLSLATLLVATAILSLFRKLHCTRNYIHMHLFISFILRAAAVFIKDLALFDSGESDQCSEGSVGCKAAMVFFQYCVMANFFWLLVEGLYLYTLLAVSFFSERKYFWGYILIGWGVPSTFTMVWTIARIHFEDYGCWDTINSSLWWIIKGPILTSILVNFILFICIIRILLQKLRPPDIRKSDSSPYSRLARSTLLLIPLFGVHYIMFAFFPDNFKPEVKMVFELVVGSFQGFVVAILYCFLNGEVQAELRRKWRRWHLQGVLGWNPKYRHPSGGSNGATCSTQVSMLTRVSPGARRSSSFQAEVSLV

[3] = target: T3, C-X-C chemokine receptor type 1 (Homo sapiens, UniProt P25024); also: in other assays of this panel Not Active means under 50% inhibition at 10 µM
T3 sequence (P25024 whole entry): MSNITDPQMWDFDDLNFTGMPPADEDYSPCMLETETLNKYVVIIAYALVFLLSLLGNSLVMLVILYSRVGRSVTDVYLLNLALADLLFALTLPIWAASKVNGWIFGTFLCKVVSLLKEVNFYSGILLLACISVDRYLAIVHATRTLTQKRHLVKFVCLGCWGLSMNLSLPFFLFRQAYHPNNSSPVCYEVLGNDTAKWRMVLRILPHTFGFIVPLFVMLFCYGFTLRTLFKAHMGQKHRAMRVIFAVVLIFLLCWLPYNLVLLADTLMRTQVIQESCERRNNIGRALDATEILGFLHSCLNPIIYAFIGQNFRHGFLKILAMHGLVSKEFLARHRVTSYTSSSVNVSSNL

[4] = target: T4, 3-hydroxy-3-methylglutaryl-coenzyme A reductase (Homo sapiens, UniProt P04035); parameters: species or system Escherichia coli;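 also: enzyme inhibition assay of HMG-CoA reductase using radiolabeled [14C]HMG-CoA as substrate; in other assays of this panel Not Active means under 50% inhibition at 10 µM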
T4 sequence (P04035 whole entry): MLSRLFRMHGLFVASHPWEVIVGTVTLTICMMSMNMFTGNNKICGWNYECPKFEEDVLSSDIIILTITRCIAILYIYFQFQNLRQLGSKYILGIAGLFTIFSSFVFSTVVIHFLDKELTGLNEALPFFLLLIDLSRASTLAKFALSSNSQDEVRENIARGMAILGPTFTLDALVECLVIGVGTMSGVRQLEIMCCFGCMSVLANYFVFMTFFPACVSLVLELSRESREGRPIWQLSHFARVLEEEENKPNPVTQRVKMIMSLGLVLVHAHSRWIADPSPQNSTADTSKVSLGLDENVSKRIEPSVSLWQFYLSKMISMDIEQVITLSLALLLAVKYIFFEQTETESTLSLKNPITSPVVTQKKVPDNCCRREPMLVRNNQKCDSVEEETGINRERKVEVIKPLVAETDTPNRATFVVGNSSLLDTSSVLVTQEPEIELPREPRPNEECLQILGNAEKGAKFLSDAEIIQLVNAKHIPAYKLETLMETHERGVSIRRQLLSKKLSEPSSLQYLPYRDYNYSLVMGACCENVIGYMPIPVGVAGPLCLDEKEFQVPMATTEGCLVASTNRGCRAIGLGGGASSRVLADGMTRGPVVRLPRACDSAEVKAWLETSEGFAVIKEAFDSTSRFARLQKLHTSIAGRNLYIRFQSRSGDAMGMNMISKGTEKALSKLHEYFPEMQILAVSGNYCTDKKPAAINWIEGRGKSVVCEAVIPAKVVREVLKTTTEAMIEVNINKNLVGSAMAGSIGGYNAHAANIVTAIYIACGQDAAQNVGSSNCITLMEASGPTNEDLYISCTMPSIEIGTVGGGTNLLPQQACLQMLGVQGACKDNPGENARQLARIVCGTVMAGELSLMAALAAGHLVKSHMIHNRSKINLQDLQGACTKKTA

[5] = target: T5, Cysteinyl leukotriene receptor 1 (Homo sapiens, UniProt Q9Y271); type: cell membranes, CHO-K1, Membrane; also: in other assays of this panel Not Active means under 50% inhibition at 10 µM
T5 sequence (Q9Y271 whole entry): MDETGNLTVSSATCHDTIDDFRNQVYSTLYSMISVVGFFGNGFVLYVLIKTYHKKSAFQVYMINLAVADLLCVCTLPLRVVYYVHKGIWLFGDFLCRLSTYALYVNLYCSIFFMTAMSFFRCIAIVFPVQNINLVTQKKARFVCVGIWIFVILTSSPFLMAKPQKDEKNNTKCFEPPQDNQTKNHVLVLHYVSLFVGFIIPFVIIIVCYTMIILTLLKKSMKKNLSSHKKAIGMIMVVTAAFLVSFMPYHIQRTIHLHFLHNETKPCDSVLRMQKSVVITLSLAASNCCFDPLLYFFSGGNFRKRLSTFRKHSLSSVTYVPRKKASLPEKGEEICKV

Row | SMILES | IC50 [1] | IC50 [2] | IC50 [3] | IC50 [4] | IC50 ([5]; cho-k1) | IC50 ([5]; read-out: IC50) [µM] | Ki ([5]; read-out: Ki) [µM] | IC50 ([1]; read-out: IC50) [µM] | Ki [1] [µM]
1 | CC1=C(CC(=O)O)c2cc(F)ccc2/C1=C\c1ccc([S+](C)[O-])cc1 (stereo not drawn) | Not Active | Not Active | Not Active | Not Active | Not Active | – | – | – | –
2 | N[C@H](CSC(=S)NCc1ccccc1)C(=O)O | Not Active | Not Active | Not Active | Not Active | Not Active | – | – | – | –
3 | CC(=O)N[C@@H]1[C@H](Oc2c3cc4cc2Oc2ccc(cc2Cl)[C@@H](O[C@@H]2O[C@@H](CO)[C@@H](O)[C@H](O)[C@@H]2NC(C)=O)[C@@H]2NC(=O)[C@H](NC(=O)[C@@H]4NC(=O)[C@H]4NC(=O)[C@@H](Cc5ccc(c(Cl)c5)O3)NC(=O)[C@H](N)c3ccc(O)c(c3)Oc3cc(O)cc4c3)c3ccc(O)c(c3)-c3c(O[C@H]4O[C@H](CO)[C@@H](O)[C@@H](O)[C@@H]4O)cc(O)cc3[C@@H](C(=O)O)NC2=O)O[C@@H](CO)[C@@H](O)[C@@H]1O | Not Active | Not Active | Not Active | Not Active | Not Active | – | – | – | –
4 | Clc1ccc2c(c1)C(N1CCNCC1)=Nc1ccccc1O2 [AMOXAPINE] | – | Not Active | Not Active | Not Active | Not Active | – | – | – | –
5 | COc1cc2c(c(OC)c1OC)-c1ccc(OC)c(=O)cc1[C@@H](NC(C)=O)CC2 [COLCHICINE] | – | Not Active | Not Active | Not Active | Not Active | – | – | – | –
6 | CN1CCC(=C2c3ccccc3C=Cc3ccccc32)CC1 [CYPROHEPTADINE] | – | Not Active | Not Active | Not Active | Not Active | – | – | – | –
7 | CC/C(=C(/CC)c1ccc(O)cc1)c1ccc(O)cc1 [DIETHYLSTILBESTROL] | – | Not Active | Not Active | Not Active | – | 17.7 | 8.87 | – | –
8 | CC(=O)N1CCN(c2ccc(OCC3COC(Cn4ccnc4)(c4ccc(Cl)cc4Cl)O3)cc2)CC1 (stereo not drawn) [KETOCONAZOLE] | – | Not Active | Not Active | Not Active | Not Active | – | – | 22.9 | 12.7
9 | C=CCN1CC[C@]23c4c5ccc(O)c4O[C@H]2C(=O)CC[C@@]3(O)[C@H]1C5 [NALOXONE] | – | Not Active | Not Active | Not Active | Not Active | – | – | – | –
10 | COCCOC(=O)C1=C(C)NC(C)=C(C(=O)OC(C)C)C1c1cccc([N+](=O)[O-])c1 (stereo not drawn) [NIMODIPINE] | Not Active | Not Active | Not Active | Not Active | Not Active | – | – | – | –
11 | CC(C)NCC(O)COc1cccc2ccccc12 (stereo not drawn) [PROPRANOLOL] | – | Not Active | Not Active | Not Active | Not Active | – | – | – | –
12 | COCCCOc1ccnc(C[S+]([O-])c2nc3ccccc3[nH]2)c1C (stereo not drawn) [RABEPRAZOLE] | Not Active | Not Active | Not Active | Not Active | Not Active | – | – | – | –
13 | O=C(c1ccc(OCCN2CCCCC2)cc1)c1c(-c2ccc(O)cc2)sc2cc(O)ccc12 [RALOXIFENE] | – | Not Active | Not Active | Not Active | Not Active | – | – | 2.69 | 1.49
14 | CNC(=C[N+](=O)[O-])NCCSCc1ccc(CN(C)C)o1 [RANITIDINE] | Not Active | Not Active | Not Active | Not Active | Not Active | – | – | – | –
15 | CO[C@H]1/C=C/O[C@@]2(C)Oc3c(C)c(O)c4c(c3C2=O)C2=NC3(CCN(CC(C)C)CC3)NC2=C(NC(=O)/C(C)=C\C=C\[C@H](C)[C@H](O)[C@@H](C)[C@@H](O)[C@@H](C)[C@H](OC(C)=O)[C@@H]1C)C4=O [RIFABUTIN] | Not Active | Not Active | Not Active | Not Active | Not Active | – | – | – | –
16 | CC(C)c1nc(CN(C)C(=O)N[C@H](C(=O)N[C@@H](Cc2ccccc2)C[C@H](O)[C@H](Cc2ccccc2)NC(=O)OCc2cncs2)C(C)C)cs1 [RITONAVIR] | Not Active | Not Active | Not Active | Not Active | Not Active | – | – | – | –
17 | CC(C)CC(N(C)C)C1(c2ccc(Cl)cc2)CCC1 (stereo not drawn) [SIBUTRAMINE] | Not Active | Not Active | Not Active | Not Active | Not Active | – | – | – | –
18 | [H]/N=C(/N)N[C@H]1[C@H](O)[C@@H](O)[C@H](O[C@@H]2O[C@@H](C)[C@](O)(C=O)[C@H]2O[C@@H]2O[C@@H](CO)[C@H](O)[C@@H](O)[C@@H]2NC)[C@@H](N/C(N)=N\[H])[C@@H]1O [STREPTOMYCIN] | Not Active | Not Active | Not Active | Not Active | Not Active | – | – | – | –
19 | COc1cc(NS(=O)(=O)c2ccc(N)cc2)nc(OC)n1 [SULFADIMETHOXINE] | Not Active | Not Active | Not Active | Not Active | Not Active | – | – | – | –
20 | Cc1cc(C)nc(NS(=O)(=O)c2ccc(N)cc2)n1 [SULFAMETHAZINE] | Not Active | Not Active | Not Active | Not Active | Not Active | – | – | – | –
21 | C[C@]1(Cn2ccnn2)[C@H](C(=O)O)N2C(=O)C[C@H]2S1(=O)=O [TAZOBACTAM] | Not Active | Not Active | Not Active | Not Active | Not Active | – | – | – | –
22 | CN1C(C(=O)Nc2ccccn2)=C(O)c2sccc2S1(=O)=O [TENOXICAM] | Not Active | Not Active | Not Active | Not Active | Not Active | – | – | – | –
23 | CC(C)(C)c1ccc(C(O)CCCN2CCC(C(O)(c3ccccc3)c3ccccc3)CC2)cc1 (stereo not drawn) [TERFENADINE] | – | Not Active | Not Active | Not Active | Not Active | – | – | 3.34 | 1.85
24 | O=C1CCC(N2C(=O)c3ccccc3C2=O)C(=O)N1 (stereo not drawn) [THALIDOMIDE] | Not Active | Not Active | Not Active | Not Active | Not Active | – | – | – | –
